Test results as given in the NIST ThermoML archive (doi:10.1016/j.jct.2008.06.009).

Conditions: Liquid, Bellows volumetry

N [ammonia]
mass density [kg/m3]
Conditions | 450 K | 500 K
30000 kPa | 355.3 | –
40000 kPa | 403.7 | –
50000 kPa | 433.4 | 350.9
60000 kPa | 455.2 | 384.9
70000 kPa | 472.6 | 410.1
80000 kPa | 487.4 | 430.2
90000 kPa | 500.2 | 446.9
100000 kPa | 511.7 | 461.5
120000 kPa | 531.4 | 485.8
140000 kPa | 548.2 | 505.9
160000 kPa | 563.1 | 523.1
180000 kPa | 576.3 | 538.3
200000 kPa | 588.2 | 551.9
